Reference: patent publication US11187660B2, “Fluorescent probes for monitoring voltage by photo-induced electron transfer” (The Regents of the University of California, priority 2011, dated 2021)
Where “and” joins values, the source holds several entries; their conditions need not be identical. Equal entries are not always repeated.

Experiments:
leech Retzius cells = assay: Capacitative loading in leech Retzius cells; format: cell-based, Hirudo medicinalis; details: hyperpolarizing current injection, dye at three times the working concentration
From the text: We injected hyperpolarizing current into the Retzius cells of leech ganglia preparations and compared the time constants for these voltage steps in ganglia under different dye loading conditions. The ganglia were stained with dye at three times the working concentration [either VF2.1.Cl or diSBA-C4-(3) (14)] and compared with unloaded cells.
Isolated midbody ganglia (Ganglia 8-16) were dissected from Hirudo medicinalis and the ventral side was desheathed using standard procedures. The voltage sensitive dye was combined with HEPES saline down to the desired concentration (100-300 nM), and 1.5 μL of a 20% (w/v) solution of Pluronic F-127 in DMSO. The dye was then continuously pumped over the ganglion to help with penetration into the cell membranes for 20-30 minutes. […]
Electrophysiological measurements were made with paired electrode recordings with resistances in the range of 20-40 MΩm. Electrode 1 acted as the recording electrode, which constantly monitored membrane potential, and electrode 2 acted as the current injecting electrode. […] The capacitance C was calculated with the formula C=tau*I/ΔV, where I=1 nA and the hyperpolarization ΔV was 15-18 mV. Tau was measured two ways: 1) the time required for the normalized curve to reach (1-1/e); 2) the time constant of the best fit exponential or sum of exponentials. […] Spontaneous Retzius cell activity was measured with a single electrode.

HEK293 cells = assay: Voltage sensitivity of fluorescence in voltage-clamped HEK cells (whole-cell recording); format: cell-based, human; details: for voltage sensitivity ΔF/F per 100 mV: HEK293 cells voltage-clamped at −60 mV holding potential
From the text: Membrane voltage of cells loaded with VF1.4.Cl or VF2.4.Cl were controlled by making tight-seal whole-cell recordings. Cells were maintained at a holding potential of −60 mV and stepped for 50 ms to various depolarizing and hyperpolarizing potentials (FIG. 5A), while simultaneously acquiring epifluorescence images. For both sensors, depolarizing steps result in fluorescence increases while hyperpolarizing steps decrease fluorescence intensity, in keeping with our proposed mechanism. […] For di-4-ANEPPS, typical values are 0.08-0.12% per mV. The larger changes for VF1.4.Cl and VF2.4.Cl compared to di-4-ANEPPS are somewhat expected, since a PeT-based voltage sensor samples the entire emission spectrum, whereas electrochromic dyes are limited to the edge of the spectrum only. For both probes, the voltage responses are linear across the physiologically relevant ranges of −100 mV to +100 mV. To assess the speed of the optical response to voltage, VF2.4.Cl signals were monitored in response to voltage steps of 100 mV from a holding potential of −60 mV.
We characterized the voltage sensitivity of all three indicators by making tight-seal whole-cell recordings of HEK293 cells stained with the VF sensors. Cells were voltage-clamped at −60 mV holding potential and sequentially stepped to depolarizing and hyperpolarizing potentials at 20-mV increments (FIG. 9B). For all three dyes, depolarizing steps produced fluorescence increases, whereas hyperpolarizing steps produced fluorescence decreases, in keeping with the proposed PeT mechanism. The fluorescence response is linear over the range of −100 mV to +100 mV (FIG. 9C), with voltage sensitivities ΔF/F per 100 mV of 20±1% for VF1.4.Cl and 25±1% for VF2.4.Cl. This statistically significant increase in voltage sensitivity (P<0.05, two-tailed Student t test) is expected upon increasing the length of the molecular wire, and is 2.5- to 4-times more sensitive than di-4-ANEPPS, which, in our hands, gives sensitivities of between 6% and 10% ΔF/F per 100 mV. […] To investigate the speed of response of VF probes, we again made whole-cell recordings of cells stained with VF2.4.Cl, applied 100-mV depolarizing steps from a holding potential of −60 mV, and recorded both the electrophysiological signals and the optical signals.
Electrophysiological recordings of HEK293 cells and cultured neurons were performed with an Axopatch 200A or 200B amplifier (Molecular Devices) at room temperature. The signals were digitized with Digidata 1332A and recorded with pCLAMP 9 software (Molecular Devices) on a PC. Analysis of electrophysiological data was done with AxoGraph X (AxoGraphX), pCLAMP 9, and/or ClampFit (Molecular Devices). For most experiments the extracellular solution consisted of (in mM) 145 NaCl, 20 glucose, 10 HEPES, 3 KCl, 2 CaCl2, 1 MgCl2 (pH 7.35, 310 mOsm). The intracellular solution contained (in mM) 115 potassium gluconate, 10 BAPTA tetrapotassium salt, 10 HEPES, 5 NaCl, 10 KCl, 2 ATP disodium salt, 0.3 GTP trisodium salt (pH 7.25, 290 mOsm).
For studies to determine excitation sensitivity of dyes, illumination was provided by a Polychrom IV light source (T.I.L.L. Photonics GMBH) with a mechanical shutter (Uniblitz VS25). For all other studies, light was provided by an Xenon arc lamp powered by an Optiquip Power supply (Optiquip) with a mechanical shutter controlled by a Lambda 10-2 controller (Sutter). […]

| Structure (SMILES) | capacitative load on the membrane (leech Retzius cells) | voltage sensitivity ΔF/F per 100 mV (HEK293 cells) | sensitivity, fractional fluorescence change (ΔF/F) versus change in membrane potential (HEK293 cells; HEK cells, holding potential −60 mV) |
| --- | --- | --- | --- |
| CN(C)c1ccc(/C=C/c2ccc(/C=C/c3ccc(-c4c5cc(Cl)c(=O)cc-5oc5cc(O)c(Cl)cc45)c(S(=O)(=O)O)c3)cc2)cc1 [VF2.1.Cl, 5-(4-(4-(dimethyllamino)styryl)styryl)-2-(2,7-dichloro-6-hydroxy-3-oxo-3H-xanthen-9-yl)benzenesulfonic acid] | no difference from control cells | 27±1% | – |
| CCCCN(CCCC)c1ccc(/C=C/c2ccc(/C=C/c3ccc(-c4c5cc(Cl)c(=O)cc-5oc5cc(O)c(Cl)cc45)c(S(=O)(=O)O)c3)cc2)cc1 [VF2.4.Cl, 5-(4-(4-(dibutylamino)styryl)styryl)-2-(2,7-dichloro-6-hydroxy-3-oxo-3H-xanthen-9-yl)benzenesulfonic acid] | – | 25±1% | 0.25±0.01 % per mV and 0.25 % per mV |
